Source: US20100004738A1, “DRUG DELIVERY COATING FOR USE WITH A MEDICAL DEVICE AND METHODS OF TREATING VASCULAR INJURY” (ATRIUM MEDICAL CORPORATION, priority 2005, published 2010)

Experiments:
Type in all cases: in vivo
[1] = system: rabbit illiac arteries; experiment: Example 2: drug-loaded Atrium Flyer stents vs Taxus Express in rabbit iliac arteries for 28 days, histomorphic and histopathologic analyses; conditions: for EEL Area / IEL Area / Intimal Area / Lumen Area / Stenosis: mean ± SD
Experimental: Histomorphic and histopathologic analyses are then performed.

[2] = system: rabbit illiac arteries; experiment: Example 1: stents implanted in rabbit iliac arteries for 28 days, histomorphic and histopathologic analyses; design: Injury Score / Fibrin Score / Inflamm. Score: scale not given here; conditions: for % Endothel. / % struts with Fibrin / % struts with RBC / EEL Area / Fibrin Score / IEL Area / Inflamm. Score / Injury Score / Intimal Area / Intimal Thick. / Lumen Area / Medial Area / Medial Thick. / Stenosis / Struts with Giant cells: Atrium Flyer ALPHA-3 coated stent, mean ± SD
Experimental: The Atrium Flyer is compared with bare metal stents, the Atrium Flyer coated with ALPHA-3 without drugs, and Cypher™ drug eluting stent. Histomorphic and histopathologic analyses are then performed.

[3] = system: rabbit's iliac vessel; experiment: Rapamycin drug eluting stents in rabbit iliac vessel, inflammation (inventors' earlier studies)
From the text: The inventors postulate, based on these animal study results, that one consequence of these types of drugs is retarded endothelial cell coverage, and that current drug eluting stents promote more chronic inflammation than would normally be present with a non drug eluting bare metal stent.

[4] = system: rabbit iliacs; experiment: Calcineurin inhibiting compounds after vascular injury in rabbit iliacs (inventors' earlier studies); conditions: local delivery, also rat, by reducing giant cell and eosinophil formation
From the text: Studies in rabbit iliacs following vascular injury conducted by and/or on behalf of the inventors show the benefits of using calcineurin inhibiting compounds like Tacrolimus, Cyclosporin A (CsA) and Cyclosporin derivatives, in small animals like the rat, and in rabbits. […] Such vascular injury and sirolimus medicated inflammation can be characterized as having excessive giant cell formation and esinophil propagation.

[5] = Atrium Flyer ALPHA-3 coated stent loaded with high dose of the drug, 28 days
[6] = Atrium Flyer ALPHA-3 coated stent loaded with low dose of the drug, 28 days
[7] = Atrium Flyer ALPHA-3 coated stent loaded with mid-dose of the drug, 28 days
[8] = sirolimus = Atrium drug coated stents, Cypher = commercial stent

Molecule: O=C1CCc2cc(OCCCCc3nnnn3C3CCCCC3)ccc2N1 [Cilostazol, cilostazol]
- EEL Area [1, 5]: 5.73 ± 0.31 mm^2
- IEL Area [1, 5]: 5.47 ± 0.26 mm^2
- Intimal Area [1, 5]: 1.245 ± 0.303 mm^2
- Lumen Area [1, 5]: 4.25 ± 0.42 mm^2
- Stenosis [1, 5]: 22.7 ± 5.9%
- EEL Area [1, 6]: 5.80 ± 0.22 mm^2
- IEL Area [1, 6]: 5.51 ± 0.21 mm^2
- Intimal Area [1, 6]: 1.246 ± 0.115 mm^2
- Lumen Area [1, 6]: 4.26 ± 0.28 mm^2
- Stenosis [1, 6]: 22.7 ± 2.4%
- EEL Area [1, 7]: 5.70 ± 0.16 mm^2
- IEL Area [1, 7]: 5.43 ± 0.14 mm^2
- Intimal Area [1, 7]: 1.257 ± 0.321 mm^2
- Lumen Area [1, 7]: 4.25 ± 0.39 mm^2
- Stenosis [1, 7]: 23.0 ± 5.7%
- reduction in neointima (in words) ([1]; Atrium Flyer coated stents, 28 days): No reduction in neointima

Molecule: CC(=O)O[C@H]1C(=O)[C@@]2(C)[C@H]([C@H](OC(=O)c3ccccc3)[C@]3(O)C[C@H](OC(=O)[C@H](O)[C@@H](NC(=O)c4ccccc4)c4ccccc4)C(C)=C1C3(C)C)[C@]1(OC(C)=O)CO[C@@H]1C[C@@H]2O [Paclitaxel, paclitaxel]
- EEL Area [1, 5]: 5.63 ± 0.24 mm^2
- IEL Area [1, 5]: 5.40 ± 0.24 mm^2
- Intimal Area [1, 5]: 1.048 ± 0.084 mm^2
- Lumen Area [1, 5]: 4.35 ± 0.22 mm^2
- Stenosis [1, 5]: 19.4 ± 1.5%
- EEL Area [1, 6]: 5.88 ± 0.41 mm^2
- IEL Area [1, 6]: 5.58 ± 0.36 mm^2
- Intimal Area [1, 6]: 1.234 ± 0.197 mm^2
- Lumen Area [1, 6]: 4.35 ± 0.40 mm^2
- Stenosis [1, 6]: 22.2 ± 4.0%
- EEL Area [1, 7]: 5.56 ± 0.26 mm^2
- IEL Area [1, 7]: 5.31 ± 0.25 mm^2
- Intimal Area [1, 7]: 1.152 ± 0.243 mm^2
- Lumen Area [1, 7]: 4.16 ± 0.27 mm^2
- Stenosis [1, 7]: 21.8 ± 5.0%
- in-stent neointimal growth (in words) ([1]; Atrium high dose stents, 28 days, compared with Taxus Express): suppresses in-stent neointimal growth
- arterial healing (in words) ([1]; rabbit, in vivo): (greater) arterial healing

Molecule: CO[C@H]1C[C@@H]2CC[C@@H](C)[C@@](O)(O2)C(=O)C(=O)N2CCCC[C@H]2C(=O)O[C@H]([C@H](C)C[C@@H]2CC[C@@H](O)[C@H](OC)C2)CC(=O)[C@H](C)/C=C(\C)[C@@H](O)[C@@H](OC)C(=O)[C@H](C)C[C@H](C)/C=C/C=C/C=C/1C [Sirolimus, Sirolimus (rapamycin)]
- tolerability / adverse reaction ([2]; Atrium Flyer ALPHA-3 coated stent loaded with low or high doses of sirolimus): well tolerated, producing no adverse reaction
- % Endothel. ([2]; high dose sirolimus, n = 10): 97.90 ± 4.58%
- % struts with Fibrin ([2]; high dose sirolimus, n = 10): 11.99 ± 6.81%
- % struts with RBC ([2]; high dose sirolimus, n = 10): 2.86 ± 3.23%
- EEL Area ([2]; high dose sirolimus, n = 10): 6.24 ± 0.25 mm^2
- Fibrin Score ([2]; high dose sirolimus, n = 10): 0.11 ± 0.09
- IEL Area ([2]; high dose sirolimus, n = 10): 5.90 ± 0.25 mm^2
- Inflamm. Score ([2]; high dose sirolimus, n = 10): 0.03 ± 0.10
- Injury Score ([2]; high dose sirolimus, n = 10): 0.04 ± 0.06
- Intimal Area ([2]; high dose sirolimus, n = 10): 0.99 ± 0.10 mm^2
- Intimal Thick. ([2]; high dose sirolimus, n = 10): 0.08 ± 0.03 mm
- Lumen Area ([2]; high dose sirolimus, n = 10): 4.94 ± 0.27 mm^2
- Medial Area ([2]; high dose sirolimus, n = 10): 0.34 ± 0.05 mm^2
- Medial Thick. ([2]; high dose sirolimus, n = 10): 0.06 ± 0.02 mm
- Stenosis ([2]; high dose sirolimus, n = 10): 16.73 ± 1.61%
- Struts with Giant cells ([2]; high dose sirolimus, n = 10, in % (unit assumed)): 2.80 ± 0.63
- % Endothel. ([2]; low dose sirolimus, n = 8): 97.62 ± 2.67%
- % struts with Fibrin ([2]; low dose sirolimus, n = 8): 34.12 ± 20.62%
- % struts with RBC ([2]; low dose sirolimus, n = 8): 3.46 ± 3.07%
- EEL Area ([2]; low dose sirolimus, n = 8): 5.99 ± 0.44 mm^2
- Fibrin Score ([2]; low dose sirolimus, n = 8): 0.20 ± 0.35
- IEL Area ([2]; low dose sirolimus, n = 8): 5.63 ± 0.38 mm^2
- Inflamm. Score ([2]; low dose sirolimus, n = 8): 0.53 ± 0.41
- Injury Score ([2]; low dose sirolimus, n = 8): 0.06 ± 0.07
- Intimal Area ([2]; low dose sirolimus, n = 8): 0.97 ± 0.11 mm^2
- Intimal Thick. ([2]; low dose sirolimus, n = 8): 0.07 ± 0.01 mm
- Lumen Area ([2]; low dose sirolimus, n = 8): 4.74 ± 0.32 mm^2
- Medial Area ([2]; low dose sirolimus, n = 8): 0.36 ± 0.09 mm^2
- Medial Thick. ([2]; low dose sirolimus, n = 8): 0.05 ± 0.01 mm
- Stenosis ([2]; low dose sirolimus, n = 8): 17.15 ± 1.84%
- Struts with Giant cells ([2]; low dose sirolimus, n = 8, in % (unit assumed)): 2.50 ± 1.41
- endothelialization (in words) [2, 8]: well endothelialized
- healing (in words) [2, 8]: delayed healing
- EEL Area [1, 5]: 6.13 ± 0.15 mm^2
- IEL Area [1, 5]: 5.80 ± 0.16 mm^2
- Intimal Area [1, 5]: 1.027 ± 0.036 mm^2
- Lumen Area [1, 5]: 4.78 ± 0.20 mm^2
- Stenosis [1, 5]: 17.7 ± 1.1%
- arterial healing (in words) ([1]; rabbit, in vivo): (greater) arterial healing
- % Struts with Giant cells ([1]; rabbit, in vivo, 28 days): 21.9 ± 7.6%
- % struts with RBC ([1]; rabbit, in vivo, 28 days): 1.2 ± 2.4%
- Endothelium (%) ([1]; rabbit, in vivo, 28 days): 97.2 ± 5.0%
- Fibrin Score ([1]; rabbit, in vivo, 28 days): 0.41 ± 0.32
- Inflam Score ([1]; rabbit, in vivo, 28 days): 1.00 ± 0.72
- inflammatory response around the drug eluting stent (in words) ([3]; Rapamycin drug eluting stent, rabbit iliacs): presence of numerous giant cells and esinophils
- amount of inflammation induced by overlapping drug coating ([3]; two separate rapamycin drug eluting stents overlapping in rabbit iliac vessel): increases nearly two fold

Molecule: C=CC[C@@H]1/C=C(\C)C[C@H](C)C[C@H](OC)[C@H]2O[C@@](O)(C(=O)C(=O)N3CCCC[C@H]3C(=O)O[C@H](/C(C)=C/[C@@H]3CC[C@@H](O)[C@H](OC)C3)[C@H](C)[C@@H](O)CC1=O)[C@H](C)C[C@@H]2OC [Tacrolimus]
- inflammation following vascular injury (in words) [4]: effectively reduce inflammation following vascular injury

Molecule: Cyclosporin A
- inflammation following vascular injury (in words) [4]: effectively reduce inflammation following vascular injury
